Measured values: publication PMC7413516, “Antidepressant-like activity and safety profile evaluation of 1H-imidazo[2,1-f]purine-2,4(3H,8H)-dione derivatives as 5-HT1A receptor partial agonists” (PLoS ONE, 2020)
“And” between values parts separate entries of the source, which are not always exact repeats. Equal values may be shown once. Marks after values point to notes of the source that are not given here.

Tests used:
human 5-HT1AR = target: T1, human 5-HT1AR (Homo sapiens, UniProt P08908); design: TEV protease site; Gal4-VP16 transcription factor; host or cells: U2OS (Tango GPCR-bla U2OS parental line); method as in Pytka et al. [14]; conditions: β-arrestin, U2OS cells; ref Pytka et al. [14]; cited from earlier work
T1 sequence (P08908 1-422): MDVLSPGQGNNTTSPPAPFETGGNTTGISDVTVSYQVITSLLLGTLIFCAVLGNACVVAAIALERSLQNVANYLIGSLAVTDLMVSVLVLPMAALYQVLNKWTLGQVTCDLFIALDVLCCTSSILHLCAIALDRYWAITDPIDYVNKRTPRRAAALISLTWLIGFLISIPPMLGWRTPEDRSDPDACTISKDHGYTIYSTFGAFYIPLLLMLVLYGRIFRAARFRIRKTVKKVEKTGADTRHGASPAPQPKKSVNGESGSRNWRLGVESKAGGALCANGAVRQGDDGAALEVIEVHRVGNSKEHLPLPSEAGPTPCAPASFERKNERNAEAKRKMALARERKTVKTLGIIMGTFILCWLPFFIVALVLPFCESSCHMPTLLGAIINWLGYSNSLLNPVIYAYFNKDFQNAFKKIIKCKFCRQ

[1] = target: T2, human serotonin 5-HT1A receptor (Homo sapiens, UniProt P08908); design: host or cells: CHO-K1; method as in Pytka et al. [14]; conditions: pERK1/2, CHO-K1 cells; ref Pytka et al. [14]; cited from earlier work
T2 sequence (P08908 1-422): T1 sequence (P08908 1-422)

human serotonin 5-HT1AR = target: T3, human serotonin 5-HT1AR (Homo sapiens, UniProt P08908); design: host or cells: CHO-K1; method as in Pytka et al. [14]; conditions: cAMP, CHO-K1 cells; ref Pytka et al. [14]; cited from earlier work
T3 sequence (P08908 1-422): T1 sequence (P08908 1-422)

mice [2] = assay: Locomotor activity (Opto M3 activity monitor) in mice; type: in vivo, Swiss albino mice
Description: The investigated compounds AZ-853 (8-(4-(4-(2-fluorophenyl)piperazin-1-yl)butyl)-1,3-dimethyl-1H-imidazo[2,1-f]purine-2,4(3H,8H)-dione and AZ-861 (1,3-dimethyl-8-(4-(4-(3-(trifluoromethyl)phenyl)piperazin-1-yl)butyl)-1H-imidazo[2,1-f]purine-2,4(3H,8H)-dione) were synthesised in the Department of Medicinal Chemistry, Faculty of Pharmacy, Jagiellonian University, and their synthesis was described earlier. AZ-853 and AZ-861 were suspended in 1% aqueous solution of Tween 80, and WAY-100635 (Sigma, Germany) was dissolved in 0.9% saline. In acute experiments, the selected compounds AZ-853 (0.156–2.5 mg/kg) and AZ-861 (0.625–2.5 mg/kg) were injected i.p. once 60 min before tests, whereas WAY-100635 (0.3 mg/kg) was administered subcutaneously (s.c.) 45 min before the test. […] In chronic experiments, AZ-853 and AZ-861 were administered i.p. once a day (between 9:00 AM and 10:00 AM) for 16 consecutive days at the minimum active doses selected from FST experiment, i.e. 0.625 and 1.25 mg/kg, respectively. […]. The control groups received 1% aqueous solution of Tween 80.
Locomotor activity was recorded with an Opto M3 multi-channel activity monitor (MultiDevice Software v.1.3, Columbus Instruments). The Swiss albino mice were individually placed in plastic cages (220 × 120 × 130 mm) for 30 min habituation period, and then the crossings of each channel (ambulation) were counted from […] to 6 min, that is the time equal to the observation period in FST. The cages were cleaned up with 70% ethanol after each mouse.
The Swiss albino mice were used in the experiment. AZ-853 and AZ-861 were injected once daily for 16 consecutive days. […]. FST, as described earlier, was performed on the 14th day just before the next treatment. To ensure that the effects observed in FST are not the result of increased motility of animals, on the 13th day, just before the next administration, the locomotor activity was measured as described earlier, from 2 to 6 min after test start, i.e. in the period identical to the duration of FST. Blood and organ collection was performed on the 17th day at 24 h after the last dose and fasting.

mice [3] = assay: Forced swim test (FST) in mice; type: in vivo, Swiss albino mice; conditions: given alone, 0.3 mg/kg s.c., 45 min before test
Description: The investigated compounds AZ-853 (8-(4-(4-(2-fluorophenyl)piperazin-1-yl)butyl)-1,3-dimethyl-1H-imidazo[2,1-f]purine-2,4(3H,8H)-dione and AZ-861 (1,3-dimethyl-8-(4-(4-(3-(trifluoromethyl)phenyl)piperazin-1-yl)butyl)-1H-imidazo[2,1-f]purine-2,4(3H,8H)-dione) were synthesised in the Department of Medicinal Chemistry, Faculty of Pharmacy, Jagiellonian University, and their synthesis was described earlier. AZ-853 and AZ-861 were suspended in 1% aqueous solution of Tween 80, and WAY-100635 (Sigma, Germany) was dissolved in 0.9% saline. In acute experiments, the selected compounds AZ-853 (0.156–2.5 mg/kg) and AZ-861 (0.625–2.5 mg/kg) were injected i.p. once 60 min before tests, whereas WAY-100635 (0.3 mg/kg) was administered subcutaneously (s.c.) 45 min before the test. […] In chronic experiments, AZ-853 and AZ-861 were administered i.p. once a day (between 9:00 AM and 10:00 AM) for 16 consecutive days at the minimum active doses selected from FST experiment, i.e. 0.625 and 1.25 mg/kg, respectively. All compounds were administered to mice at a volume of 10 ml/kg and to rats at a volume of 2 ml/kg. The control groups received 1% aqueous solution of Tween 80.
The experiment was carried out according to the method of Porsolt et al.. Swiss albino mice were individually placed in a glass cylinder (25 cm high; 10 cm in diameter) containing 10 cm of water maintained at 23–25°C, and were left there for 6 min. The total duration of immobility was recorded during the last 4 min of a 6-min. A mouse was regarded as immobile when it remained floating on the water, making only small movements to keep its head above it.
The Swiss albino mice were used in the experiment. AZ-853 and AZ-861 were injected once daily for 16 consecutive days. On the 1st and 15th day the administration of the compounds, 18-h spontaneous animal activity was registered (see below). FST, as described earlier, was performed on the 14th day just before the next treatment. To ensure that the effects observed in FST are not the result of increased motility of animals, on the 13th day, just before the next administration, the locomotor activity was measured as described earlier, from 2 to 6 min after test start, i.e. in the period identical to the duration of FST. Blood and organ collection was performed on the 17th day at 24 h after the last dose and fasting.

SMILES	Emax (%) ± SEM, agonist mode (human 5-HT1AR)	Emax (%) ± SEM, agonist mode [1]	Emax (%) ± SEM, agonist mode (human serotonin 5-HT1AR)	effect on spontaneous locomotor activity, acute administration (mice [2]; 4 min period identical to FST, AZ-853 0.625, 1.25, 2.5 mg/kg, AZ-861 1.25 mg/kg, WAY-100635 0.3 mg/kg alone or combined)	Number of movements (individual animals) (mice [2]; acute, WAY-100635 0.3 mg/kg alone, 3 to 6 min, raw data, 0.3 mg/kg)	Number of movements (mean) (mice [2]; acute, WAY-100635 alone 0.3 mg/kg s.c., 3 to 6 min)	effect on immobility in FST (mice [3])
COc1ccccc1N1CCN(CC(C(=O)NC(C)(C)C)c2ccccc2)CC1 (stereo not shown) [WAY-100135]	1±0.5^c %	2±1.0^c %	2±0.5^c %	–	–	–	–
COc1ccccc1N1CCN(CCN(C(=O)C2CCCCC2)c2ccccn2)CC1 [WAY-100635, reference compound]	–	–	–	did not change the locomotor activity	130 and 88 and 93 and 242 and 100 and 107	122.9	had no effect on immobility
